In patent US9884863B2, “STAT3 inhibitor” (Board of Regents, The University of Texas System, priority 2013, dated 2018):
Where two headings read alike, the source gives them in different places.

Key:
MCF-7 = assay: MTS cell proliferation assay, MCF-7; assay type: cell-based, human
How it was run: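 MCF-7 human breast cancer cells were exposed to test compounds at a range of concentrations, then proliferation was measured with the MTS reagent from Promega's CellTiter 96 AQueous Non-Radioactive Cell Proliferation Assay kit. After 1 hr at 37° C., OD at 550 nm was read on a 96-well iMark Microplate Absorbance Reader, with quadruplicate wells per concentration.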

MDA-MB-361 = assay: MTS cell proliferation assay, MDA-MB-361; assay type: cell-based; settings: Homo sapiens, ER-positive breast cancer, 72 hrs, >10 = no effect, read-out: IC50 MDA-MB-361 (Table 1)
Procedure: (§1) Cancer cells (breast cancer cell lines MCF-7, MDA-MB-361, SKBR3 and MDA-MB-231, pancreatic cancer cell lines AsPC-1. BxPC3 and Panc-1) were seeded in 96-well plates at a density of 1000-2000 cells/well and treated with DMSO, 0.01, 0.1, 1, 5, 10, and […] of STAT3 individual inhibitors for 72 hrs. Proliferation was measured by treating cells with the 3-(4,5-dimethylthiazol-2-yl)-5-(3-carboxymethoxyphenyl)-2-(4-sulfophenyl)-2H-tetrazolium) (MTS) in a CellTiter 96t AQueous Non-Radioactive Cell Proliferation Assay kit from Promega, Madison, Wis., USA). Absorbance of all wells was determined by measuring OD at 550 nm after 1 hr incubation at 37° C. on a 96-well iMark™ Microplate Absorbance Reader (BioRad, Hercules, Calif.). Each individual compound was tested in quadruplicate wells for each concentration, and the results were reported as mean absorption±s.e.

MDA-MB-231 = assay: MTS cell proliferation assay, MDA-MB-231; assay type: cell-based, human; settings: Homo sapiens, read-out: IC50 MDA-MB-231 (Table 1)
How it was run: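 Cells are exposed to DMSO or STAT3 inhibitors at 0.01-100 μM for 72 h, or at 1, 5 and 10 μM. Proliferation is read by MTS absorbance at 550 or 560 nm after 1 h at 37 °C. Each concentration is run in quadruplicate wells.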

SKBR3 = assay: MTS cell proliferation assay, SKBR3; assay type: cell-based; settings: Homo sapiens, SK-BR-3; ER-negative breast cancer, 72 hrs; >10 = no effect; read-out: IC50 SKBR3 (Table 1)
Procedure: as §1

AsPC1 = assay: MTS cell proliferation assay, AsPC1; assay type: cell-based, human; settings: Homo sapiens, read-out: IC50 AsPC1 (Table 1)
Procedure: as §1
(§2) In Vitro Determination of Effects of Synthesized Compounds on Cancer Cell Proliferation. Cancer cells (breast cancer cell lines MCF-7 and MDA-MB-231, pancreatic cancer cell lines AsPC-1 and Panc-1) were seeded in 96-well plates at a density of 2×10^3 cells/well and treated with DMSO, 0.01, 0.1, 1, 5, 10, and 100 μM of individual STAT3 inhibitors for 72 h. Proliferation was measured by treating cells with the 3-(4,5-dimethylthiazol-2-yl)-5-(3-carboxymethoxyphenyl)-2-(4-sulfophenyl)-2H-tetrazolium) (MTS) in a CellTiter 96t Aqueous Non-Radioactive Cell Proliferation Assay kit (Promega, Madison, Wis., USA). Absorbance of all wells was determined by measuring OD at 550 nm after 1 h incubation at 37° C. on a 96-well iMark™ Microplate Absorbance Reader (BioRad, Hercules, Calif.). Each individual compound was tested in quadruplicate wells for each concentration.

BxPc-3H = assay: MTS cell proliferation assay, BxPc-3H; assay type: cell-based; settings: Homo sapiens; pancreatic cancer, 72 hrs; >10 = no effect; read-out: IC50 BxPc-3H (Table 1)
Procedure: as §1

Panc-1 = assay: MTS cell proliferation assay, Panc-1; assay type: cell-based, human; settings: Homo sapiens, read-out: IC50 Panc-1 (Table 1)
Procedure: as §1, §2

[1] = Homo sapiens, MCF7, 72 h, read-out: IC50 MCF-7 (Table 1)
[2] = MCF-7, 48 hr, μM concentrations
[3] = Homo sapiens, MCF7, 72 h; read-out: IC50 MCF-7 (Table 1)
[4] = MDA-MB-231, ER-negative breast cancer, 72 hrs, >10 = no effect
[5] = ASPC1, pancreatic cancer, 72 hrs, >10 = no effect
[6] = PANC-1, pancreatic cancer, 72 hrs, >10 = no effect

| SMILES | IC50 (MCF-7; [1]) [µM] | IC50 (MDA-MB-361) [µM] | IC50 (MDA-MB-231; MDA-MB-231, 72 h) [µM] | IC50 (SKBR3) [µM] | IC50 (AsPC1; ASPC1, 72 h) [µM] | IC50 (BxPc-3H) [µM] | IC50 (Panc-1; PANC-1, 72 h) [µM] | inhibition on breast cancer cell proliferation (FIG. 1) (MCF-7; [2]) | IC50 (MCF-7; [3]) [µM] | IC50 (MDA-MB-231; [4]) [µM] | IC50 (AsPC1; [5]) [µM] | IC50 (Panc-1; [6]) [µM] |
| --- | --- | --- | --- | --- | --- | --- | --- | --- | --- | --- | --- | --- |
| O=C(Nc1ccc([N+](=O)[O-])cc1Cl)c1cc(Cl)ccc1OCCN1CCOCC1 [HJC-1-14, 5-Chloro-N-(2-chloro-4-nitro-phenyl)-2-(2-morpholin-4-yl-ethoxy)benzamide] | 9.87 | 12.6 | 17.9 | 5.1 | 73.2 | > 10 | > 10 |  |  |  |  |  |
| O=C(Nc1ccc([N+](=O)[O-])cc1Cl)c1cc(-c2ccccc2)nc2ccccc12 [HJC-1-17, 2-Phenyl-quinoline-4-carboxylic acid (2-chloro-4-nitro-phenyl)amide] | 15.9 | 17.4 | > 10 | > 10 | > 10 | > 10 | > 10 |  |  |  |  |  |
| O=C(Nc1ccc2c(c1)S(=O)(=O)C=C2)c1cc(-c2ccccc2)nc2ccccc12 [HJC-1-23, 2-Phenyl-quinoline-4-carboxylic acid (1,1-dioxo-1H-1λ^6-benzo[b]thiophen-6-yl)-amide] | 0.1 | 0.24 | 0.29 | 0.22 | 1.25 | 0.2 | 0.26 | significant inhibition |  |  |  |  |
| O=C(Nc1ccc([N+](=O)[O-])cc1Cl)c1cc(Cl)ccc1OC1CCNCC1 [HJC-1-25, 5-Chloro-N-(2-chloro-4-nitro-phenyl)-2-(piperidin-4-yloxy)benzamide] |  | 0.18 |  | 0.28 |  | 0.27 |  | significant inhibition | 0.25 | 0.29 | 2.76 | 0.54 |
| C[C@H](NC(=O)c1cc(-c2ccccc2)nc2ccccc12)c1ccccc1 [HJC-1-28, 2-Phenyl-quinoline-4-carboxylic acid (1-phenyl-ethyl)amide] |  | 132 |  | 45.9 |  | 16.4 |  |  | 2.24 | 86 | > 10 | 15.4 |
| Nc1ccc(NC(=O)c2cc(Cl)ccc2O)c(Cl)c1 [HJC-1-29, N-(4-Amino-2-chloro-phenyl)-5-chloro-2-hydroxy-benzamide] |  | 14.9 |  | 16.1 |  | > 10 |  |  | > 10 | > 10 | > 10 | > 10 |
| C[C@H](NC(=O)c1cc(Cl)ccc1O)c1ccccc1 [HJC-1-30, 5-Chloro-2-hydroxy-N-(1-phenyl-ethyl)benzamide] |  | 6.39 |  | 6.51 |  | 7.26 |  | significant inhibition | 0.9 | 8.88 | 7.54 | 8.44 |
| CS(=O)(=O)Nc1ccc(NC(=O)c2cc(Cl)ccc2O)c(Cl)c1 [HJC-1-31, 5-Chloro-N-(2-chloro-4-methanesulfonylamino-phenyl)-2-hydroxybenzamide] |  | 43 |  | > 10 |  | > 10 |  |  | > 10 | > 10 | > 10 | 0.84 |
| O=C(Nc1ccc2c(c1)S(=O)(=O)C=C2)c1cc(-c2ccccc2)nc(-c2ccccc2)c1 [HJC-1-36, N-(1,1-Dioxo-1H-1λ^6-benzo[b]thiophen-6-yl)-2,6-diphenyl-isonicotinamide] |  | 0.23 |  | 0.2 |  | 0.27 |  | significant inhibition | 0.65 | 0.45 | 0.12 | 0.31 |
| CC(=O)Nc1ccc(NC(=O)c2cc(Cl)ccc2OC(C)=O)c(Cl)c1 [HJC-1-37, Acetic acid 2-(4-acetylamino-2-chloro-phenylcarbamoyl)-4-chlorophenyl ester] |  | 9.23 |  | 9.14 |  | 13.2 |  |  | 11.7 | > 10 | 11.6 | 27.9 |
| CC(=O)Nc1ccc(NC(=O)c2cc(Cl)ccc2O)c(Cl)c1 [HJC-1-40, N-(4-Acetylamino-2-chlorophenyl)-5-chloro-2-hydroxybenzamide] |  | 22.8 |  | 11.2 |  | > 10 |  |  | > 10 | 66.3 | 37.6 | > 10 |
| NCCCOc1ccc(Cl)cc1C(=O)Nc1ccc([N+](=O)[O-])cc1Cl [HJC-3-8, 2-(3-Aminopropoxy)-5-chloro-N-(2-chloro-4-nitrophenyl)benzamide] |  |  |  |  |  |  |  | significant inhibition | 3.11 | 2.61 | 4.2 | 3.11 |
| Cc1ccc(S(=O)(=O)Nc2ccc3c(c2)S(=O)(=O)C=C3)cc1 [HJC-3-70, N-(1,1-Dioxo-1H-1λ^6-benzo[b]thiophen-6-yl)-4-methylbenzenesulfonamide] |  |  |  |  |  |  |  |  | 3.24 | 2.66 | 1.92 | 2.89 |
| N#C/C(=C\c1cccc(Br)n1)C(=O)Nc1ccc2c(c1)S(=O)(=O)C=C2 [HJC-3-71, 3-(6-Bromo-pyridin-2-yl)-2-cyano-N-(1,1-dioxo-1H-1λ^6-benzo[b]thiophen-6-yl)-acrylamide] |  |  |  |  |  |  |  | significant inhibition | 3.31 | 1.53 | 1.54 | 1.64 |
| NCCCCCOc1ccc(Cl)cc1C(=O)Nc1ccc([N+](=O)[O-])cc1Cl [HJC-3-89, 2-(5-Amino-pentyloxy)-5-chloro-N-(2-chloro-4-nitro-phenyl)benzamide] |  |  |  |  |  |  |  | significant inhibition | 3.49 | 3.1 | 2.08 | 4.67 |
| O=C(Nc1ccc2c(c1)S(=O)(=O)C=C2)c1cc(Cl)ccc1OCCN1CCNCC1 [HJC-4-13, 5-Chloro-N-(1,1-dioxo-1H-1λ^6-benzo[b]thiophen-6-yl)-2-(2-piperazin-1-yl-ethoxy) benzamide] |  |  |  |  |  |  |  |  | 2.56 | 3.29 | 1.87 | 3.69 |
| NCCCOc1ccc(Cl)cc1C(=O)Nc1ccc2c(c1)S(=O)(=O)C=C2 [HJC-4-16, 2-(3-Aminopropoxy)-5-chloro-N-(1,1-dioxo-1H-1λ^6-benzo[b]thiophen-6-yl)benzamide] |  |  |  |  |  |  |  | significant inhibition | 1.76 | 1.97 | 0.27 | 1.88 |
| CNCCOc1ccc(Cl)cc1C(=O)Nc1ccc2c(c1)S(=O)(=O)C=C2 [HJC-4-28, 5-Chloro-N-(1,1-dioxo-1H-1λ^6-benzo[b]thiophen-6-yl)-2-(2-methylaminoethoxy)benzamide] |  |  |  |  |  |  |  | significant inhibition | 3.15 | 3.12 | 2.05 | 3.09 |
| O=C(Nc1ccc2c(c1)S(=O)(=O)C=C2)c1ccnc(-c2ccccc2)c1 [HJC-4-30, N-(1,1-Dioxo-1H-1λ^6-benzo[b]thiophen-6-yl)-2-phenyl-isonicotinamide] |  |  |  |  |  |  |  | significant inhibition | 3.78 | 1.85 | 1.3 | 3.35 |
